Data: US9682995B2, “Amino-substituted isothiazoles” (BAYER PHARMA AKTIENGESELLSCHAFT, priority 2013, dated 2017)

What was measured:
[1] = system: spindle assembly checkpoint; experiment: SAC-Formation - Nocodazole-Induced Assay; format: cell-based; conditions: Homo sapiens; HeLa cells, nocodazole 0.1 μg/ml, 24 h, phosphorylated histone H3 on serine 10
Procedure, shortened: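 HeLa cells were given nocodazole at 0.1 μg/ml final together with compounds (0.005–20 μM, 0.5% DMSO) for 24 h at 37° C. Mitotic cells were counted by phospho-histone H3 Ser10 immunostaining, with cell number from HOECHST 33342, by high-content imaging. The loss of mitotic cells was fitted with a four-parameter Hill equation.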

human kinase Mps-1 = human kinase Mps-1 (Homo sapiens (Human), UniProt P33981); experiment: Mps-1 kinase assay (TR-FRET); format: biochemical; conditions: 10 μM ATP; read-out: Mps1 avg (IC50 [mol/l])
Chain of human kinase Mps-1 (P33981 whole entry): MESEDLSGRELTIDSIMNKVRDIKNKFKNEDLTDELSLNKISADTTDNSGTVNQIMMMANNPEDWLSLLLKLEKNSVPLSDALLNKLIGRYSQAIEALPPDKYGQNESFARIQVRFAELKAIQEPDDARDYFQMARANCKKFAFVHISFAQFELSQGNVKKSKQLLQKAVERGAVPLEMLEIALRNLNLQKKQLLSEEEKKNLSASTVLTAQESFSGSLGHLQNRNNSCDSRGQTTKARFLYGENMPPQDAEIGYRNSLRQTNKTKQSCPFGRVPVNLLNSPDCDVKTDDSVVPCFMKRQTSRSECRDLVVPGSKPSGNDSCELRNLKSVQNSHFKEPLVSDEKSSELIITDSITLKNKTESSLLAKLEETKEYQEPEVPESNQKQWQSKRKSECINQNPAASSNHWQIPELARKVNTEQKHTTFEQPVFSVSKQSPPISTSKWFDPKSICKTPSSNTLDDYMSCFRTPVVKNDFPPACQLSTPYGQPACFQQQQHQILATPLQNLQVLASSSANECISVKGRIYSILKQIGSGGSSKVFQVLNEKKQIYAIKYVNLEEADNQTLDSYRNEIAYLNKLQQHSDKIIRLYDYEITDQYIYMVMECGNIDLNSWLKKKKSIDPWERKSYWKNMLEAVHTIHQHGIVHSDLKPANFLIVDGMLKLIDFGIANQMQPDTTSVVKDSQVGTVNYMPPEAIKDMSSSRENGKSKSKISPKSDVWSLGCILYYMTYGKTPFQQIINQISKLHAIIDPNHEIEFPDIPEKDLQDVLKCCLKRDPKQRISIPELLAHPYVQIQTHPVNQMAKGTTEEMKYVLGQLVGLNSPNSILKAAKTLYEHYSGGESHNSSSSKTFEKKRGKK
Procedure, shortened: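 GST-tagged full-length human Mps-1 (~0.5 nM) preincubated 15 min with compound, then reacted 60 min at 22 °C with 10 μM ATP and 1 μM biotinylated peptide in Hepes pH 7.7 buffer. Phosphoproduct detected by TR-FRET (Eu anti-phospho-Ser/Thr, SA-XLent); 665/620 ratio normalised to no-inhibitor and no-enzyme controls.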

Structure (SMILES) | IC50 [1] [nM] | IC50 (human kinase Mps-1) [nM]
Cc1nsc(Nc2cnc3cc(F)ccc3n2)c1C(=O)Nc1ccc(F)c(F)c1 [Example 46, N-(3,4-Difluorophenyl)-5-[(6-fluoroquinoxalin-2-yl)amino]-3-methyl-1,2-thiazole-4-carboxamide] | 61 | > 20000
CCc1ccccc1NC(=O)c1c(C)nsc1Nc1ccc(C#N)cn1 [Example 7, 5-[(5-Cyanopyridin-2-yl)amino]-N-(2-ethylphenyl)-3-methyl-1,2-thiazole-4-carboxamide] | 830 | > 20000
Cc1nsc(Nc2cnccn2)c1C(=O)Nc1ccc(Cl)c(F)c1 [Example 56, N-(4-Chloro-3-fluorophenyl)-3-methyl-5-(pyrazin-2-ylamino)-1,2-thiazole-4-carboxamide] | 67 | > 20000
COC(=O)c1ccc(Nc2snc(C)c2C(=O)Nc2ccc(OC)nc2)nc1 [Example 31, Methyl 6-({4-[(6-methoxypyridin-3-yl)carbamoyl]-3-methyl-1,2-thiazol-5-yl}amino)-nicotinate] | 5500 | > 20000
CCOC(=O)c1sc(Nc2snc(C)c2C(=O)Nc2ccc(OC)nc2)nc1C [Example 30, Ethyl 2-({4-[(6-methoxypyridin-3-yl)carbamoyl]-3-methyl-1,2-thiazol-5-yl}amino)-4-methyl-1,3-thiazole-5-carboxylate] | 92 | > 20000
Cc1nsc(Nc2ncc(C(=O)N(C)C)s2)c1C(=O)Nc1ccc(F)c(F)c1 [Example 49, N-(3,4-Difluorophenyl)-5-{[5-(dimethylcarbamoyl)-1,3-thiazol-2-yl]amino}-3-methyl-1,2-thiazole-4-carboxamide] | 350 | > 20000
COc1ccc(NC(=O)c2c(C)nsc2Nc2cc(C#N)ccn2)cn1 [Example 25, 5-[(4-Cyanopyridin-2-yl)amino]-N-(6-methoxypyridin-3-yl)-3-methyl-1,2-thiazole-4-carboxamide] | 2200 | > 20000
CCc1ccccc1NC(=O)c1c(C)nsc1Nc1nc2ccccc2nc1C [Example 21, N-(2-Ethylphenyl)-3-methyl-5-[(3-methylquinoxalin-2-yl)amino]-1,2-thiazole-4-carboxamide] | 280 | > 20000
CCc1ccccc1NC(=O)c1c(C)nsc1Nc1nccnc1C#N [Example 34, 5-[(3-Cyanopyrazin-2-yl)amino]-N-(2-ethylphenyl)-3-methyl-1,2-thiazole-4-carboxamide] | 950 | > 20000
COc1ccc(NC(=O)c2c(C)nsc2Nc2cnc3ccc(Cl)cc3n2)cn1 [Example 42, 5-[(7-Chloroquinoxalin-2-yl)amino]-N-(6-methoxypyridin-3-yl)-3-methyl-1,2-thiazole-4-carboxamide] | 260 | > 20000
Cc1nsc(Nc2ccn3nccc3n2)c1C(=O)Nc1ccc(F)c(F)c1 [Example 57, N-(3,4-Difluorophenyl)-3-methyl-5-(pyrazolo[1,5-a]pyrimidin-5-ylamino)-1,2-thiazole-4-carboxamide] | 520 | 18000
CCc1ccccc1NC(=O)c1c(C)nsc1Nc1ccnc(C#N)n1 [Example 6, 5-[(2-Cyanopyrimidin-4-yl)amino]-N-(2-ethylphenyl)-3-methyl-1,2-thiazole-4-carboxamide] | 680 | > 20000
Cc1nsc(Nc2nc3c(C(F)(F)F)ccnc3s2)c1C(=O)Nc1ccc(Cl)c(F)c1 [Example 103, N-(4-Chloro-3-fluorophenyl)-3-methyl-5-{[7-(trifluoromethyl)[1,3]thiazolo[5,4-b]pyridin-2-yl]amino}-1,2-thiazole-4-carboxamide] | 240 | > 20000
Cc1nsc(Nc2cnc3ccccc3n2)c1C(=O)Nc1ccc(F)c(F)c1 [Example 50, N-(3,4-Difluorophenyl)-3-methyl-5-(quinoxalin-2-ylamino)-1,2-thiazole-4-carboxamide] | 56 | > 20000
COc1ccc(NC(=O)c2c(C)nsc2Nc2cnc3cc(C(F)(F)F)ccc3n2)cn1 [Example 45, N-(6-Methoxypyridin-3-yl)-3-methyl-5-{[6-(trifluoromethyl)quinoxalin-2-yl]amino}-1,2-thiazole-4-carboxamide] | 54 | > 20000
Cc1nsc(Nc2cncc(C(=O)N(C)C)n2)c1C(=O)Nc1ccc(F)c(F)c1 [Example 104, 6-({4-[(3,4-Difluorophenyl)-carbamoyl]-3-methyl-1,2-thiazol-5-yl}amino)-N,N-dimethyl-pyrazine-2-carboxamide] | 530 | > 20000
CCOC(=O)c1coc(Nc2snc(C)c2C(=O)Nc2ccc(OC)nc2)n1 [Example 100, Ethyl 2-({4-[(6-methoxypyridin-3-yl)carbamoyl]-3 methyl-1,2-thiazol-5-yl}amino)-1,3-oxazole-4-carboxylate] | 5500 | > 20000
CNC(=O)c1ccnc(Nc2snc(C)c2C(=O)Nc2ccc(F)c(F)c2)c1 [Example 108, 2-({4-[(3,4-Difluorophenyl)-carbamoyl]-3-methyl-1,2-thiazol-5-yl}amino)-N-methyliso-nicotinamide] | 1800 | > 20000
Cc1nsc(Nc2nc3c(C(F)(F)F)cccc3s2)c1C(=O)Nc1ccc(Cl)c(Cl)c1 [Example 102, N-(3,4-Dichlorophenyl)-3-methyl-5-{[4-(trifluoromethyl)-1,3-benzothiazol-2-yl]amino}-1,2-thiazole-4-carboxamide] | 220 | > 20000
CCc1ccccc1NC(=O)c1c(C)nsc1Nc1cc(C(F)(F)F)ccn1 [Example 18, N-(2-Ethylphenyl)-3-methyl-5-{[4-(trifluoromethyl)pyridin-2-yl]amino}-1,2-thiazole-4-carboxamide] | 150 | > 20000
COc1ccc(NC(=O)c2c(C)nsc2Nc2nc3c(C(F)(F)F)cccc3s2)cn1 [Example 48, N-(6-Methoxypyridin-3-yl)-3-methyl-5-{[4-(trifluoromethyl)-1,3-benzothiazol-2-yl]-amino}-1,2-thiazole-4-carboxamide] | 130 | > 20000
CCOC(=O)c1sc(Nc2snc(C)c2C(=O)Nc2ccccc2CC)nc1C [Example 26, Ethyl 2-({4-[(2-ethylphenyl)carbamoyl]-3-methyl-1,2-thiazol-5-yl}amino)-4-methyl-1,3-thiazole-5-carboxylate] | 140 | > 20000
CCc1ccccc1NC(=O)c1c(C)nsc1Nc1cnc2cccc(C)c2n1 [Example 33, N-(2-Ethylphenyl)-3-methyl-5-[(8-methylquinoxalin-2-yl)amino]-1,2-thiazole-4-carboxamide] | 200 | > 20000
CCc1ccccc1NC(=O)c1c(C)nsc1Nc1nc(C)nc2sccc12 [Example 38, N-(2-Ethylphenyl)-3-methyl-5-[(2-methylthieno[2,3-d]pyrimidin-4-yl)amino]-1,2-thiazole-4-carboxamide] | 690 | > 20000
CCOc1ccc(NC(=O)c2c(C)nsc2Nc2cnc3ccccc3n2)cn1 [Example 119, N-(6-Ethoxypyridin-3-yl)-3-methyl-5-(quinoxalin-2-ylamino)-1,2-thiazole-4-carboxamide] | 88 | > 20000
Cc1nsc(Nc2nc3c(C(F)(F)F)cccc3s2)c1C(=O)Nc1ccc(Cl)c(F)c1 [Example 53, N-(4-Chloro-3-fluorophenyl)-3-methyl-5-{[4-(trifluoromethyl)-1,3-benzothiazol-2-yl]amino}-1,2-thiazole-4-carboxamide] | 340 | > 20000
COc1ccc(Oc2ccc(NC(=O)c3c(C)nsc3Nc3cc(C#N)ccn3)cn2)cc1 [Example 117, 5-[(4-Cyanopyridin-2-yl)amino]-N-[6-(4-methoxyphenoxy)pyridin-3-yl]-3-methyl-1,2-thiazole-4-carboxamide] | 270 | > 20000
Cc1nsc(Nc2cnc3ccccc3n2)c1C(=O)Nc1ccc(OC(C)C)nc1 [Example 122, N-(6-Isopropoxypyridin-3-yl)-3-methyl-5-(quinoxalin-2-ylamino)-1,2-thiazole-4-carboxamide] | 59 | > 20000
Cc1nsc(Nc2cc(C#N)ccn2)c1C(=O)Nc1ccc(OC2CCCCC2)nc1 [Example 118, 5-[(4-Cyanopyridin-2-yl)amino]-N-[6-(cyclohexyloxy)pyridin-3-yl]-3-methyl-1,2-thiazole-4-carboxamide] | 60 | > 20000
